From ChEMBL document CHEMBL1201862, “PubChem BioAssay data set” (2004)
Active and inactive are the calls of the source.

Tests used:
Streptokinase A = molecular target: T1, Streptokinase A (Streptococcus pyogenes serotype M1, UniProt P10520); experiment: S. pyogenes streptokinase expression inhibitors, potency, dose response, plasminogen activation absorbance, OD405 (AID 1914); format: functional, Streptococcus pyogenes M1 GAS;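 also: secreted streptokinase activity via plasminogen activation per viability signal from cell pellet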
T1 sequence (P10520 whole entry): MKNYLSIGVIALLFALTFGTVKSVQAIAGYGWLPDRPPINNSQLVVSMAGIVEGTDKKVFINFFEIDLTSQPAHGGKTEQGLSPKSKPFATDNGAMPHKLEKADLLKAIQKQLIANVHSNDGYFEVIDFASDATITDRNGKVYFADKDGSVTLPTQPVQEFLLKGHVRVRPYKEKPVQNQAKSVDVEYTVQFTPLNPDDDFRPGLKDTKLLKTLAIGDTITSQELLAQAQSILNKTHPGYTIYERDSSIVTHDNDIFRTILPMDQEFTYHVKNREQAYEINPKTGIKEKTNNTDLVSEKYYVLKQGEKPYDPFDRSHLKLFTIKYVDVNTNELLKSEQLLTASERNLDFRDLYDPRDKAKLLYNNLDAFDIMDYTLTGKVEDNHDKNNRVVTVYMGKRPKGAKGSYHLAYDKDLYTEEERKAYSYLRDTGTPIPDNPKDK

[1] = Luminescence Cell-Based Dose Retest to Confirm Inhibitors of Cancer Stem Cells. [Related pubchem assays (depositor defined):AID2717, AID2721]; format: functional; conditions: Homo sapiens
[2] = test system: Streptococcus sp. 'group A'; experiment: growth inhibition of control SK(-) GAS strain, dose response, counter-screen for streptokinase expression inhibitor project, luminescence, kanamycin, BacTiterGlo, confirmation (AID 1900); format: functional, organism-based
Trypsin = Trypsin (Sus scrofa, UniProt P00761); experiment: porcine trypsin inhibitors, dose response, selectivity assay for Rce1 protease inhibitor project, biochemical, quenched peptide fluorescence, cherry-pick (AID 488789)
Trypsin, sequence (P00761 whole entry): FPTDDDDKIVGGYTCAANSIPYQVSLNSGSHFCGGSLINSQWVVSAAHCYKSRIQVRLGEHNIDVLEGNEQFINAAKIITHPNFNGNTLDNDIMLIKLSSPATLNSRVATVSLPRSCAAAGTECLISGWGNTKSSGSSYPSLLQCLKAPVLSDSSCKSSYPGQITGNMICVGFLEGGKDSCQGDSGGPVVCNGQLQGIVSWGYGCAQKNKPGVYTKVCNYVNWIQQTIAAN

CAAX prenyl protease 2 [3] = molecular target: CAAX prenyl protease 2 (Homo sapiens, UniProt Q9Y256); experiment: human Rce1 protease inhibitors, dose response, biochemical, yeast membranes, quenched-peptide fluorescence, cherry-pick (AID 588849)
CAAX prenyl protease 2 (Homo sapiens, UniProt Q9Y256), sequence (Q9Y256 whole entry): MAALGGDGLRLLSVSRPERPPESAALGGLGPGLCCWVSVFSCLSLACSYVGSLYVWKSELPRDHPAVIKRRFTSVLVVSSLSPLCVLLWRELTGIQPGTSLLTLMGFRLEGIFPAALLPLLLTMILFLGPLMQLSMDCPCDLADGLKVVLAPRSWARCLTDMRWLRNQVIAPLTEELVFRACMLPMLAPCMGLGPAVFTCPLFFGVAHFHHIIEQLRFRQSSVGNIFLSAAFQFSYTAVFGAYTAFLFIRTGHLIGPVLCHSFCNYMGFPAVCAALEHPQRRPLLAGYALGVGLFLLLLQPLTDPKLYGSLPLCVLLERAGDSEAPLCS

CAAX prenyl protease 2 [4] = molecular target: T2, CAAX prenyl protease 2 (Saccharomyces cerevisiae S288c, UniProt Q03530); format: biochemical
T2 sequence (Q03530 whole entry): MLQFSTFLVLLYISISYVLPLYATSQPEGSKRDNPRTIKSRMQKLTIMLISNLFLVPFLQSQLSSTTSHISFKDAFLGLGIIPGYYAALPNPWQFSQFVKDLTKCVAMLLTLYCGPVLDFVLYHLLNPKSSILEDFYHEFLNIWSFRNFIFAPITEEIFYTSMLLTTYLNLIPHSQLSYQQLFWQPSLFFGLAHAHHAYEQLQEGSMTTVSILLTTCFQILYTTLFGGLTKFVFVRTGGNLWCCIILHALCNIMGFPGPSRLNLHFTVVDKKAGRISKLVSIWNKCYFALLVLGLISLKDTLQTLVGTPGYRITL

CAAX prenyl protease 1 = CAAX prenyl protease 1 (Saccharomyces cerevisiae S288c, UniProt P47154); experiment: Ste24 protease inhibitors, dose response, biochemical, S. cerevisiae, plate reader, cherry-pick (AID 488815)
Streptococcus = experiment: Group A Streptococcus viability loss, dose response, counter-screen for streptokinase expression inhibitor project, luminescence, BacTiterGlo (AID 1915); format: functional, organism-based;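 also: potency for reduction of bacterial viability or growth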
Caspase-3 = Caspase-3 (Homo sapiens, UniProt P42574); format: functional;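 also: Dose-response selectivity test against caspase-3 for candidate inhibitors of sentrin-specific proteases (SENPs)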
Caspase-3, sequence (P42574 29-175 limits assumed): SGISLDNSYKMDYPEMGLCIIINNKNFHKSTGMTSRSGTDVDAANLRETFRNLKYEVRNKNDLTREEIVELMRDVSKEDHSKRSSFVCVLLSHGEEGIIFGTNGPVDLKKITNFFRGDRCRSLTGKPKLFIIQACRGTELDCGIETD
Caspase-3, sequence (P42574 176-277 limits assumed): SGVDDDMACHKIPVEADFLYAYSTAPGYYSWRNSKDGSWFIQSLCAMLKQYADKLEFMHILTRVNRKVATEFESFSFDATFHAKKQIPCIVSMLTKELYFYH

[5] = molecular target: T3, Oxysterols receptor LXR-beta (Homo sapiens, UniProt P55055); format: functional, cell-based;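 also: Cell-based luminescence dose-response assay of agonist activity at LXR, run as a confirmatory counterscreen to a daf-12 agonist screen; agonist potency from rising luciferase signal of a Gal4-LXR reporter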
T3 sequence (P55055 whole entry): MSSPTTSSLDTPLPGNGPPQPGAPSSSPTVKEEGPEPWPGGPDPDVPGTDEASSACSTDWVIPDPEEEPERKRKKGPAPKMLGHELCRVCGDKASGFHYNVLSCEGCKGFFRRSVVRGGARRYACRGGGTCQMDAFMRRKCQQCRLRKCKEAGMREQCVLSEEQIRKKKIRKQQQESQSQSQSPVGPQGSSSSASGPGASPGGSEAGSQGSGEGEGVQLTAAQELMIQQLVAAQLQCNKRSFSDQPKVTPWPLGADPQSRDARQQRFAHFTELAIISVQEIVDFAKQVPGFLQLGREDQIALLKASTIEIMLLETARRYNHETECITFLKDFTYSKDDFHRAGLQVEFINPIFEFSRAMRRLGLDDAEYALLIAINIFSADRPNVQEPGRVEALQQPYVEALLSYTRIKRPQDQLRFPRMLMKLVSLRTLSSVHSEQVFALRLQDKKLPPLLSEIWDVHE

[6] = molecular target: T4, Sentrin-specific protease 8 (Homo sapiens, UniProt Q96LD8); format: functional;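 also: luminescence read-out of SENP8 inhibition, dose-response confirmation following an ultra-high-throughput screen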
T4 sequence (Q96LD8 whole entry): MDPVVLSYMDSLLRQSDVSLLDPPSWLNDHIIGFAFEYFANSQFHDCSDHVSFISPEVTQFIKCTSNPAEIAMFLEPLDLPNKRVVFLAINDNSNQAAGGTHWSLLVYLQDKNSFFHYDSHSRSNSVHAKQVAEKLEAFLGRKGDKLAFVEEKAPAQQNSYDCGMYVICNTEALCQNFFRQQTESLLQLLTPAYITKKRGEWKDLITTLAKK

cells [7] = experiment: cells
[8] = molecular target: T5, Mannose-6-phosphate isomerase (Homo sapiens, UniProt P34949); experiment: inhibitors of human PMI, primary screen, biochemical, fluorescence intensity, coupled assay (AID 1209)
T5 sequence (P34949 whole entry): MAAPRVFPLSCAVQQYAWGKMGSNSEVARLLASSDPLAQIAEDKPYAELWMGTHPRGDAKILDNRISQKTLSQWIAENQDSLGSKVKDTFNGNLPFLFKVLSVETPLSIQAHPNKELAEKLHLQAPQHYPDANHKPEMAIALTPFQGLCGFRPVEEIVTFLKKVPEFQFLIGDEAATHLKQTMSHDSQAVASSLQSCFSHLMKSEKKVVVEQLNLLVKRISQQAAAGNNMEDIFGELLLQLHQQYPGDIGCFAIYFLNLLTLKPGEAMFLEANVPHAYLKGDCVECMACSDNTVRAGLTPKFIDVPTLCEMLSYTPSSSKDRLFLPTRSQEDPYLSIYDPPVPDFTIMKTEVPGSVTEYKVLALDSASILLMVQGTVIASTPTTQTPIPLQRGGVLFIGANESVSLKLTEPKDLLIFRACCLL

[9] = molecular target: T5, Mannose-6-phosphate isomerase; experiment: human PMI inhibitors, high substrate, primary screen, biochemical, fluorescence intensity, high mannose 6-phosphate (AID 1220)
[10] = Luminescence-based cell-based high throughput dose response assay to identify activators of the DAF-12 from the parasite S. stercoralis (ssDAF-12).; format: functional
[11] = molecular target: Induced myeloid leukemia cell differentiation protein Mcl-1 (Homo sapiens, UniProt Q07820); format: functional
[12] = molecular target: T3, Oxysterols receptor LXR-beta; experiment: LXR agonists, Gal4 luciferase reporter, dose response, counter-screen for ssDAF-12 agonist project, cell-based, luminescence, HEK293, S. stercoralis campaign (AID 720737); format: functional; conditions: read-out: IC50 (the source's name)
[13] = molecular target: Sentrin-specific protease 7 (Homo sapiens, UniProt Q9BQF6); format: functional;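 also: Luminescence-based dose-response confirmation of ultra-high-throughput screening hits, measuring inhibition of SENP7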
Sentrin-specific protease 7, sequence (Q9BQF6 whole entry): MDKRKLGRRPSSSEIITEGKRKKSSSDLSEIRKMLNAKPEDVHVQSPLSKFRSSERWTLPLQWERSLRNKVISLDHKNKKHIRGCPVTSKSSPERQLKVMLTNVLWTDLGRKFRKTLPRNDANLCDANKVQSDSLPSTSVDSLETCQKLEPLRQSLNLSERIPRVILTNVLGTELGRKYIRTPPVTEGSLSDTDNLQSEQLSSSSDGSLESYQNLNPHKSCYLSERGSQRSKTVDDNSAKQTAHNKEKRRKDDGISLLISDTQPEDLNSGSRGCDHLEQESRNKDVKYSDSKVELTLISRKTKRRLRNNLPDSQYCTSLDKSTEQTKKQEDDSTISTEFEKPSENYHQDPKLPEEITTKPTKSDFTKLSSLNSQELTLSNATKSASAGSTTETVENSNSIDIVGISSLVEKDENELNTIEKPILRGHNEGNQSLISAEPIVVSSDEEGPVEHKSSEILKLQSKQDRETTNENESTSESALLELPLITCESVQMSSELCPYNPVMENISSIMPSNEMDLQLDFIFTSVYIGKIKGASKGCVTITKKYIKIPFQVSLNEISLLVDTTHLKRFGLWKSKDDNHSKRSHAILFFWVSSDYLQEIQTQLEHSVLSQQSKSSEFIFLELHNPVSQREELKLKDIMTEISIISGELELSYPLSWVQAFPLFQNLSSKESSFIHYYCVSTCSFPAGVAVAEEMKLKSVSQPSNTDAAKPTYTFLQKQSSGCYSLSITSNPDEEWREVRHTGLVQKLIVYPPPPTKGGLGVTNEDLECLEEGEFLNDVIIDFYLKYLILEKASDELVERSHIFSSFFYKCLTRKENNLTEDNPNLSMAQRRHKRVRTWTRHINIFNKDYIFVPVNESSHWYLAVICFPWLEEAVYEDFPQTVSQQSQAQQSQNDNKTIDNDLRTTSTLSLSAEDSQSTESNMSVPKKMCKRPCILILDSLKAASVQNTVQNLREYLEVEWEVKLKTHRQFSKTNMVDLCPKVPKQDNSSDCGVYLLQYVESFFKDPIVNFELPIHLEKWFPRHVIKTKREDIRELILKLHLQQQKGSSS

[14] = molecular target: Sentrin-specific protease 6 (Homo sapiens, UniProt Q9GZR1); format: functional;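 also: Luminescence-based dose-response confirmatory assay of SENP6 inhibition, following up an ultra-high-throughput screen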
Sentrin-specific protease 6, sequence (Q9GZR1 whole entry): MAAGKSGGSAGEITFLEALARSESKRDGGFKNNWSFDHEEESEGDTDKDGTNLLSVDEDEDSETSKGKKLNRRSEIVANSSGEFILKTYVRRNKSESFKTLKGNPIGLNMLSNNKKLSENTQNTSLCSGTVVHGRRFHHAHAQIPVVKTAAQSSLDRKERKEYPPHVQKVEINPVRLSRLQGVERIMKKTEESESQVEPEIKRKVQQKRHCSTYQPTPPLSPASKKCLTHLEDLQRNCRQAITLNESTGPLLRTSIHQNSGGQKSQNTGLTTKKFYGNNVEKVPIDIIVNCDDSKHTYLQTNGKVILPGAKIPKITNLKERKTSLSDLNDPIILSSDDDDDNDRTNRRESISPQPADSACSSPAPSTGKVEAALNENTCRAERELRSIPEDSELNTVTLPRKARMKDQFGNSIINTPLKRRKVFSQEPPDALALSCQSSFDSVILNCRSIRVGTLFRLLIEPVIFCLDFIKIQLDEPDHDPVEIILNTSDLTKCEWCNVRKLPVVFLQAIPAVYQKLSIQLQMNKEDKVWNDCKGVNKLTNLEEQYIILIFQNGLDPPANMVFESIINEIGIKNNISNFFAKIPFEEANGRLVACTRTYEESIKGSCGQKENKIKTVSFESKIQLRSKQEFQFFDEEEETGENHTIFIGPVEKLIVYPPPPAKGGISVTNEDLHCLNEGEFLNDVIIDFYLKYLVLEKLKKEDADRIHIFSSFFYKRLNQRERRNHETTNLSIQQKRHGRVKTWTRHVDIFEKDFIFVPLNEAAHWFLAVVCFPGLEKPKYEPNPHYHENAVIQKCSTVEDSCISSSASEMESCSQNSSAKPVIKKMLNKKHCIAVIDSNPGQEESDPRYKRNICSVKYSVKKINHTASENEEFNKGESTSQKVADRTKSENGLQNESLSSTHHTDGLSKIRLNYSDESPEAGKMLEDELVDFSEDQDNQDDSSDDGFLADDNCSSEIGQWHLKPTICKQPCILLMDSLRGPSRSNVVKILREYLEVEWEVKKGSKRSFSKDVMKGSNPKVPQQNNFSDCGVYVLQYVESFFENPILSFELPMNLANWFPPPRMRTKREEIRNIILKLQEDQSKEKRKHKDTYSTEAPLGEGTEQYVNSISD

BJ [15] = experiment: cytotoxicity toward BJ-TERT-LT-ST fibroblasts, dose response, cell-based, RAS-independent, luminescence (AID 1935); format: functional; conditions: Homo sapiens;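 also: BJ fibroblasts immortalized with TERT plus LT and ST oncogenes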
BJ [16] = experiment: cytotoxicity toward Ras-transformed BJeLR fibroblasts, dose response, cell-based, alamar blue fluorescence, cherrypicked samples (AID 2631); format: functional; conditions: Homo sapiens;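 also: confirmatory dose-response assay in RAS-dependent BJ fibroblasts engineered with TERT, LT and ST, with cytotoxicity read by fluorescence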
BJ [17] = experiment: cytotoxicity toward BJ-TERT fibroblasts, dose response, cell-based, RAS-independent, luminescence (AID 1933); format: functional; conditions: Homo sapiens
BJ [18] = experiment: cells; format: functional, cell-based; conditions: Homo sapiens
[19] = cytotoxicity toward DRD oncogenic fibroblasts, dose response, cell-based, non-viral oncogenic, luminescence (AID 1934); format: functional; conditions: Homo sapiens
[20] = molecular target: ATP-dependent molecular chaperone HSP82 (Candida albicans (strain WO-1) (Yeast), UniProt C4YTQ8); experiment: loss of DOC-induced GRE-beta-galactosidase reporter signal, dose response, Hsp90 inhibitor project, S. cerevisiae, luminescence (AID 2400); format: functional, cell-based;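 also: beta-galactosidase luminescence from glucocorticoid response element reporter as proxy for Hsp90 function; inhibitor potency where signal loss means Hsp90 inhibition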
ATP-dependent molecular chaperone HSP82, sequence (C4YTQ8 whole entry): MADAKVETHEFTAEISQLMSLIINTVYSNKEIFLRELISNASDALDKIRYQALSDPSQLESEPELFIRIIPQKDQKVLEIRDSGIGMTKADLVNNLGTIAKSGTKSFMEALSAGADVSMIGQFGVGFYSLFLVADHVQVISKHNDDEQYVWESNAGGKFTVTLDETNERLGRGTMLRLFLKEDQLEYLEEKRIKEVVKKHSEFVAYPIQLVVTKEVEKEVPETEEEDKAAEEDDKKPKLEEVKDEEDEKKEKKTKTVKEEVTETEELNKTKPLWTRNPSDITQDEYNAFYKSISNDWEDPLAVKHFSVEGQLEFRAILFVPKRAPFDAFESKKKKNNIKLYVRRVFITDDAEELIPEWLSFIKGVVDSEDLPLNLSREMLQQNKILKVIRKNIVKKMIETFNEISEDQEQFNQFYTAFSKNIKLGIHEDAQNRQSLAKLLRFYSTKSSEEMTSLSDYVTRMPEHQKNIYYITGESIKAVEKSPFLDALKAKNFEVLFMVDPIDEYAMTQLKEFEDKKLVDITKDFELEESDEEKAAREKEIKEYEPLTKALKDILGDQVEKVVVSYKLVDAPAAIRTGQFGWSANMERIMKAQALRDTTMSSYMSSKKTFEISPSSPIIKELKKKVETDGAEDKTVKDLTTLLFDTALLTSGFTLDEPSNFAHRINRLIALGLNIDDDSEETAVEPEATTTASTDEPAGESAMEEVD

[21] = NIH-3T3 fibroblast cytotoxicity, dose response, cytotoxicity control, cell-based, fluorescence, Alamar Blue, secondary assay (AID 2327); format: functional;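 also: NIH-3T3 mouse fibroblasts cultured with fluconazole at 8 µg/mL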
[22] = molecular target: Serine/threonine-protein phosphatase (Candida dubliniensis (strain CD36 / CBS 7987 / NCPF 3949 / NRRLY-17841) (Yeast), UniProt B9W6M3); experiment: calcineurin pathway inhibitors in yeast reporter, dose response, S. cerevisiae, CDRE-lacZ, luminescence, secondary (AID 2388); format: functional, cell-based;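 also: yeast reporter cells carrying a calcineurin-responsive lacZ construct stimulated with calcium chloride; luminescent beta-galactosidase reporter signal in whole cells rather than isolated phosphatase activity; potency for inhibition where a drop in reporter signal means calcineurin blockade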
Serine/threonine-protein phosphatase, sequence (B9W6M3 whole entry): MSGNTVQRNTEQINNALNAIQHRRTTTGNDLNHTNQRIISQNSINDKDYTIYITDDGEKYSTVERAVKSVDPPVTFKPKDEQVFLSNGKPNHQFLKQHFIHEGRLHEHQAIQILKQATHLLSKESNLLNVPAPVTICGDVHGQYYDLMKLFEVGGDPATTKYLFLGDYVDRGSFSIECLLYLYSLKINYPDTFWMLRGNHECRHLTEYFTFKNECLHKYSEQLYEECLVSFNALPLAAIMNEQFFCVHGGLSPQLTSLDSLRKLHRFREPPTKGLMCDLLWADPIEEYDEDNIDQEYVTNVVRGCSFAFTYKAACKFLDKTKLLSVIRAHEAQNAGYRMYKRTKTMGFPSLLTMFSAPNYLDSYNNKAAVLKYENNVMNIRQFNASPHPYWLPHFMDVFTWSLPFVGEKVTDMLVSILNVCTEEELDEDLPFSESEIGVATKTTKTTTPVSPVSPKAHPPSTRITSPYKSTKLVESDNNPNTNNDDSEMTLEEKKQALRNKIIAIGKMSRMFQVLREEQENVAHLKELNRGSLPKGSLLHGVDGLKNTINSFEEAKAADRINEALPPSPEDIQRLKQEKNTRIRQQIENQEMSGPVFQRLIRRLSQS

[23] = microbe, parasite or virus in culture; format: functional; conditions: Mycobacterium tuberculosis
[24] = C. albicans growth with fluconazole, confirmation, fluorescence, retest (AID 2467); format: functional, cell-based
Fatty acid synthase [25] = molecular target: T6, Fatty acid synthase (Homo sapiens, UniProt P49327); experiment: FAS thioesterase domain inhibitors, dose response, biochemical, endpoint fluorescence intensity, uHTS hits (AID 624327); format: functional;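 also: fluorescence from hydrolysis of an O-methyl fluorescein acyl ester substrate by the enzyme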
Vero = experiment: cells; format: functional; conditions: Chlorocebus sabaeus
Fatty acid synthase [26] = molecular target: T6, Fatty acid synthase; experiment: FAS thioesterase domain inhibitors, dose response, biochemical, kinetic fluorescence intensity (AID 624326); format: functional;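 also: rate of fluorescence rise from hydrolysis of a fluorogenic O-methyl fluorescein ester substrate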
[27] = molecular target: Melanin-concentrating hormone receptor 1 (Homo sapiens, UniProt Q99705); experiment: Late-stage fluorescence-based counterscreen for antagonists of the G-protein coupled receptor 7 (GPR7): cell-based dose response assay to identify antagonists of the melanin-concentrating hormone receptor 1 (MCHR1) Set 5.; format: functional
[28] = molecular target: ALK tyrosine kinase receptor (Homo sapiens, UniProt Q9UM73); format: functional;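 also: ALK tested as one member of a kinase panel screen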
[29] = molecular target: Cyclin-dependent kinase 19 (Homo sapiens, UniProt Q9BWU1); experiment: Navigating the Kinome. Panel member name: CDC2L6; format: functional
[30] = molecular target: Protein disulfide-isomerase (Homo sapiens, UniProt P07237); experiment: PDI inhibitors, insulin aggregation turbidity, dose response, biochemical, absorbance, cherry-picked samples (AID 602350); format: functional
Protein disulfide-isomerase, sequence (P07237 whole entry): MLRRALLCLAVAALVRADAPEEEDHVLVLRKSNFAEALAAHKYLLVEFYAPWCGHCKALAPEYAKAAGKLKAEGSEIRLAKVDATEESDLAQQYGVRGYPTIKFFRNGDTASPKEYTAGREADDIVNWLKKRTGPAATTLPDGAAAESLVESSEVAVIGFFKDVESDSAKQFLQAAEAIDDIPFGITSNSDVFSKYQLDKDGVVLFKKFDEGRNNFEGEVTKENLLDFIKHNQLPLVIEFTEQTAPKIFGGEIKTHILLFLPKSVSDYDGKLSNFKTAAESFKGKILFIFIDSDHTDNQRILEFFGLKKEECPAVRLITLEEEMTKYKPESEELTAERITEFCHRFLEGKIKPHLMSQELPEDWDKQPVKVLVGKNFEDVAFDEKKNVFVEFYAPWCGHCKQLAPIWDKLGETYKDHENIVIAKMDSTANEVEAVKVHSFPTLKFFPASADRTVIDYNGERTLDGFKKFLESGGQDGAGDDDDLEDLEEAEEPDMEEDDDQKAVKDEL

INS1 = experiment: beta cell apoptosis inhibitors, cytokine rescue, dose response, luminescence, retest (AID 449756); format: functional, cell-based; conditions: Rattus norvegicus;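 also: cell death triggered by IL-1 beta plus TNF-alpha plus IFN-gamma mixture; protective hits raise ATP signal compared with cytokine alone wells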
cells [31] = format: functional, cell-based
[32] = cytotoxicity in HEK-293T cells, dose response, cytotoxicity control for TCR NF-kB inhibitor project, luminescence, T-cell screen hits (AID 489026); format: functional, cell-based;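 also: cells exposed to compound about 14 hours before the viability readout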
cells [33] = format: functional, cell-based; remark: listed apart in the source
[34] = molecular target: Dual specificity tyrosine-phosphorylation-regulated kinase 1A (Rattus norvegicus, UniProt Q63470); format: biochemical, Homo sapiens
Large T antigen = Large T antigen (Simian virus 40, UniProt P03070); format: functional, Betapolyomavirus macacae;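 also: Confirmatory-stage PubChem screen for compounds that inhibit SV40 T antigen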

Cc1cccc(-c2oc3ccccc3c2C#CCCCCO)c1
EC50 (Streptokinase A): > 150 µM (not active) | AC50 [1]: 6.31 µM (active) | EC50 [2]: 4.57 µM (active) | AC50 (Trypsin): 3.53 µM (active) | AC50 (CAAX prenyl protease 2 [3]): 12.9 µM (active) | AC50 (CAAX prenyl protease 2 [4]): 7.08 µM (active) | AC50 (CAAX prenyl protease 1): 3.56 µM (active) | EC50 (Streptococcus): 7.64 µM (active)

COc1ccc(-n2nc3cc(C)c(N)c(Br)c3n2)cc1
IC50 (Caspase-3): 35.5 µM (active) | EC50 [5]: > 67.5 µM (inactive) | IC50 [6]: 41.3 µM (active) | EC50 (cells [7]): > 67.5 µM (inactive) | IC50 [8]: > 50 µM (not active) | IC50 [9]: > 50 µM (not active) | IC50 [10]: > 67.5 µM (inactive) | IC50 [11]: 2.53 µM (active) | EC50 [12]: > 67.5 µM (inactive) | IC50 [13]: 5.86 µM (active) | IC50 [14]: 13.7 µM (active)

Cc1ccccc1Nc1nc(N)nc(CCl)n1
EC50 (BJ [15]): > 150 µM (not active) | EC50 (BJ [16]): 13.6 µM (active) | EC50 (BJ [17]): 0.369 µM (inconclusive) | EC50 (BJ [18]): 7.39 µM (inconclusive) | EC50 [19]: 4.85 µM (active)

Cc1c(Cl)ccc2c1NC(=O)[C@]21N[C@@H](Cc2ccccc2)[C@H]2C(=O)N(c3ccc(F)cc3)C(=O)[C@H]21
EC50 [20]: > 160 µM (inactive) | EC50 [21]: > 150 µM (inactive) | EC50 [22]: > 180 µM (inactive) | CC50 [23]: 33 µM (active) | EC50 [24]: 0.206 µM (active)

Cc1ccc(OCc2nc(-c3ccccc3)no2)cc1
IC50 (Caspase-3): 42.1 µM (active) | IC50 [6]: 69.9 µM (active) | IC50 [13]: 11.6 µM (active) | IC50 [14]: 47.1 µM (active)

O=C(Nc1nnc(-c2ccc(F)cc2)o1)c1cccc([N+](=O)[O-])c1
IC50 (Fatty acid synthase [25]): 11.9 µM (active) | EC50 [20]: > 150 µM (inactive) | EC50 [21]: > 150 µM (inactive) | CC50 (Vero): 11.4 µM (active) | IC50 (Fatty acid synthase [26]): 9.09 µM (active) | EC50 [22]: > 180 µM (inactive) | EC50 [24]: 0.601 µM (active)

COc1ccc(Oc2c(Cl)cnn(C3c4ccccc4Oc4ccccc43)c2=O)cc1
IC50 [27]: > 20 µM (inactive)

Cn1cc(Nc2ncc(Br)c(Nc3ccccc3)n2)cn1
Ki [28]: 1.26 µM (active) | Ki [29]: 2 µM (active)

C[C@H]1CN([C@@H](C)CO)C(=O)c2cccc(NS(C)(=O)=O)c2O[C@@H]1CN(C)Cc1ccc(Oc2ccccc2)cc1
AC50 [30]: 19.5 µM (active)

O=C(N/N=C\c1c(O)ccc2ccccc12)c1ccc(S(=O)(=O)N2CCCCC2)cc1
EC50 (BJ [16]): 0.558 µM (inconclusive) | AC50 (INS1): < 0.195 µM (active) | EC50 [21]: 3.29 µM (active) | EC50 (cells [31]): 5.71 µM (active) | IC50 [32]: > 80 µM (inactive) | EC50 (cells [33]): > 350 µM (not active) | EC50 [24]: 0.178 µM (active)

O=c1c(OC2OC(CO)C(O)C(O)C2O)c(-c2ccc(O)c(O)c2)oc2cc(O)cc(O)c12 (stereo not given)
AC50 [34]: 7.72 µM (active) | IC50 (Large T antigen): 2.06 µM (active) | AC50 [30]: 8.92 µM (active) | IC50 [8]: 21.3 µM (active)
